{
  "source": "ChEMBL document CHEMBL1201862",
  "about": "“PubChem BioAssay data set” (2004)",
  "key": {"Melanocortin receptor 4": {"molecular_target": "Melanocortin receptor 4 (Homo sapiens, UniProt P32245)", "sequence (P32245 whole entry)": "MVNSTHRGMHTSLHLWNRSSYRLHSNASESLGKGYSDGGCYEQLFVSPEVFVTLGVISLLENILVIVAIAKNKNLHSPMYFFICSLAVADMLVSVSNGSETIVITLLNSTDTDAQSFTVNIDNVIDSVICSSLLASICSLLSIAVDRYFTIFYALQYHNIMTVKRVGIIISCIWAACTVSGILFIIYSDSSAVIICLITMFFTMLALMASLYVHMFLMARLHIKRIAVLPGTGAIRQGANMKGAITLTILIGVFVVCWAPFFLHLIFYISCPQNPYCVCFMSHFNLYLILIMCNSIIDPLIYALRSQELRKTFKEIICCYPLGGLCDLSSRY", "test": "inhibitors of MC4R cAMP signaling – cell-based, TR-FRET, biased antagonists, dose response (AID 602298);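 note: antagonist potency against agonist-stimulated cAMP production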", "format": "functional"}, "[1]": {"test": "cAMP pathway inhibition in counterscreen cell line – TR-FRET cAMP detection, counter-screen for MC4R biased antagonist project, dose response (AID 602305);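 note: U2OS cells stimulated with forskolin near its EC80 as the cAMP inducer; potency is for inhibition of forskolin-stimulated cAMP signaling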", "format": "functional, cell-based"}, "HEK293": {"system": "HEK293", "test": "Fluorescence-based counterscreen for potentiators or agonists of NPY-Y2: cell-based high-throughput dose response assay to identify inhibitors of cyclic nucleotide gated ion channel (CNGC) activity. In this assay, the parental HEK293 cell line transfected with a cyclic-nucleotide gated ion channel (CNGC)-based cAMP sensor is used to measure inhibition of isoproterenol-induced CNGC activity by test compound.", "format": "functional", "conditions": "Homo sapiens"}, "[2]": {"molecular_target": "T1, Neuropeptide Y receptor type 1 (Homo sapiens, UniProt P25929)", "T1 sequence (P25929 whole entry)": "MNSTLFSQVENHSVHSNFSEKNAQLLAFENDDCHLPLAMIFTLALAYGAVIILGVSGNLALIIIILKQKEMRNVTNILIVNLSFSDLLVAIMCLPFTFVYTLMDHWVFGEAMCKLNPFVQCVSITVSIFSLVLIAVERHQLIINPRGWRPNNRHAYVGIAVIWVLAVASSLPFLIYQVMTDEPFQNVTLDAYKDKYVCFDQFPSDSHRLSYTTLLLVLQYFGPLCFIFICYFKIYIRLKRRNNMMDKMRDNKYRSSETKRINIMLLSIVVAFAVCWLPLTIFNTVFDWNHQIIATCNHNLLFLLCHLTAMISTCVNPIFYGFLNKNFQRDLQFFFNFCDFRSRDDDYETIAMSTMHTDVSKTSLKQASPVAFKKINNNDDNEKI", "test": "Fluorescence-based counterscreen for agonists of NPY-Y2: cell-based high-throughput dose response assay for agonists of NPY-Y1.", "format": "functional"}, "[3]": {"molecular_target": "T2, Neuropeptide Y receptor type 2 (Homo sapiens, UniProt P49146)", "T2 sequence (P49146 whole entry)": "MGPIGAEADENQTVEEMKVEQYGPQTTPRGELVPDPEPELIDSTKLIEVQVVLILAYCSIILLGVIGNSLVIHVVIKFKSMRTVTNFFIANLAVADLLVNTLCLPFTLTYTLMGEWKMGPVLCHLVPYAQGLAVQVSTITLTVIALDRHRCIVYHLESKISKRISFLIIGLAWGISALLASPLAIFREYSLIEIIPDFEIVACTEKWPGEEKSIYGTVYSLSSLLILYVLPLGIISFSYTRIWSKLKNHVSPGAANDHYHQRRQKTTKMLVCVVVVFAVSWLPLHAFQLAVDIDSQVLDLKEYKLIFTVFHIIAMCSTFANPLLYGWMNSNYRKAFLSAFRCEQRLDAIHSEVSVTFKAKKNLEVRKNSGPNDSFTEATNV", "test": "Fluorescence-based cell-based high-throughput dose response assay for agonists of NPY-Y2. [Related pubchem assays: 1703 (Screening assay (CNGC inhibitors).), 1359 (Screening assay (NPY-Y2 potentiators or agonists).), 1304 (Screening assay (NPY-Y1 potentiators or agonists).), 1710 (Screening assay (NPY-Y2 agonists).), 1791 (Summary AID.)]", "format": "functional"}, "[4]": {"molecular_target": "T3, High affinity choline transporter 1 (Homo sapiens, UniProt Q9GZV3)", "T3 sequence (Q9GZV3 whole entry)": "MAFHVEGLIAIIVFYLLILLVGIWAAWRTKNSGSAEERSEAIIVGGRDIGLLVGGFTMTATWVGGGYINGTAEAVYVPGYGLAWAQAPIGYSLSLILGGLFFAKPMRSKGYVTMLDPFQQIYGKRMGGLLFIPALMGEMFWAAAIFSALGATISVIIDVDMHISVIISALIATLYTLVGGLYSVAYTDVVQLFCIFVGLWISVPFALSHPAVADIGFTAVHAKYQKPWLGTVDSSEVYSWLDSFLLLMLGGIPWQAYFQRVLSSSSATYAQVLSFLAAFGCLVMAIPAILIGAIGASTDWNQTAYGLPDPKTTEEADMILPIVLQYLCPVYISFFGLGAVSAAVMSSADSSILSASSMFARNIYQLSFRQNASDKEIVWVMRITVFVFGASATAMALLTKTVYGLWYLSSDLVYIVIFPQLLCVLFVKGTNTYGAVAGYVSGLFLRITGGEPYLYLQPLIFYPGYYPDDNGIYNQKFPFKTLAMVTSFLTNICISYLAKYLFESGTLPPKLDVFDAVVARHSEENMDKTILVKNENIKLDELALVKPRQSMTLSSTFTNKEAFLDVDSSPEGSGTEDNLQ", "test": "human choline transporter blockers, potency – cell-based, 10-point CRC, membrane potential dye, dose response (AID 588401);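 note: membrane potential dye fluorescence of choline-evoked depolarization via CHT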", "format": "functional"}, "[5]": {"molecular_target": "T3, High affinity choline transporter 1", "test": "human choline transporter blockers, potency – cell-based, 5-point CRC, membrane potential dye, dose response (AID 504840)", "format": "functional"}, "[6]": {"test": "THP-1 cell cytotoxicity, cytotoxicity control, set 5 (AID 588443)", "format": "functional"}, "[7]": {"test": "Vero cell viability loss – purified and synthesized compounds, set 6, cytotoxicity control for M. tuberculosis inhibitor project, dose response (AID 588445)", "format": "functional", "conditions": "Mycobacterium tuberculosis"}, "[8]": {"molecular_target": "T4, Melanin-concentrating hormone receptor 1 (Homo sapiens, UniProt Q99705)", "T4 sequence (Q99705 whole entry)": "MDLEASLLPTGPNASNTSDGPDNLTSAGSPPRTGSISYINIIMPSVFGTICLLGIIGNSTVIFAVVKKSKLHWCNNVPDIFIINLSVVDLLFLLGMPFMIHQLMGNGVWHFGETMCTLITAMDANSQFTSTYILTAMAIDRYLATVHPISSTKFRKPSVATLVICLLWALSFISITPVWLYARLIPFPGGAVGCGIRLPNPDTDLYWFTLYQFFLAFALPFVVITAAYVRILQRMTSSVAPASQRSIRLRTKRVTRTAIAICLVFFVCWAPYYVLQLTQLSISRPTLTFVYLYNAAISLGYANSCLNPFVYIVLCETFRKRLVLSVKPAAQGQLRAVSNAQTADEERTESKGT", "test": "Late-stage fluorescence-based counterscreen for antagonists of the G-protein coupled receptor 7 (GPR7): cell-based dose response assay to identify antagonists of the melanin-concentrating hormone receptor 1 (MCHR1) Set 5.", "format": "functional"}, "[9]": {"molecular_target": "T5, Neuropeptides B/W receptor type 1 (Homo sapiens, UniProt P48145)", "T5 sequence (P48145 whole entry)": "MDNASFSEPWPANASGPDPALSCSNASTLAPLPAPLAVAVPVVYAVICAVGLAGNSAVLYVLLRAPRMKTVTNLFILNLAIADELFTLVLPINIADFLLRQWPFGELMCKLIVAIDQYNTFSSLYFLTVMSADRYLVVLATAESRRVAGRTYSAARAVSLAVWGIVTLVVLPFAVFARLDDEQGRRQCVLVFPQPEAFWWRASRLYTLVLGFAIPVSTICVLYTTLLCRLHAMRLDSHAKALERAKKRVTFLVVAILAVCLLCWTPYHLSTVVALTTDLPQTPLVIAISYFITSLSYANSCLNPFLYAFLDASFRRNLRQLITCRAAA", "test": "human NPBW1 receptor blockade, IC50 – cell-based, fluorescence, dose response, set 5, late-stage follow-up (AID 588566)", "format": "functional"}, "[10]": {"molecular_target": "T5, Neuropeptides B/W receptor type 1", "test": "human NPBW1 receptor blockade, IC50 – cell-based, fluorescence, dose response, set 6, late-stage follow-up (AID 588583)", "format": "functional"}, "[11]": {"molecular_target": "T4, Melanin-concentrating hormone receptor 1", "test": "Late-stage fluorescence-based counterscreen for antagonists of the G-protein coupled receptor 7 (GPR7): cell-based dose response assay to identify antagonists of the melanin-concentrating hormone receptor 1 (MCHR1) Set 6.", "format": "functional"}},
  "note": "Active and inactive are the calls of the source.",
  "data": [
    {"compound": "O=C(Nc1ccccc1C(=O)N1CCCC1)c1ccc(Cl)c([N+](=O)[O-])c1", "values": [
      {"measurement": "IC50", "setting": "Melanocortin receptor 4", "value": "20.6 µM (inactive)"},
      {"measurement": "IC50", "setting": "[1]", "value": "> 64.6 µM (inactive)"},
      {"measurement": "EC50", "setting": "HEK293", "value": "28 µM (not active)"},
      {"measurement": "EC50", "setting": "[2]", "value": "18.6 µM (not active)"},
      {"measurement": "EC50", "setting": "[3]", "value": "27.9 µM (not active)"}
    ]},
    {"compound": "O=C(O)CC1=C(Nc2ccccc2)C(=O)N(c2ccccc2)C1c1ccc(F)cc1", "note": "(stereo not drawn)", "values": [
      {"measurement": "IC50", "setting": "[4]", "value": "0.751 µM (active)"},
      {"measurement": "IC50", "setting": "[5]", "value": "3.9 µM (active)"}
    ]},
    {"compound": "O=C(c1ccc(CNc2c(N3CCCC3)c(=O)c2=O)cc1)N1CC=C(c2ccccc2)CC1", "values": [
      {"measurement": "CC50", "setting": "[6]", "value": "75.8 µM (active)"},
      {"measurement": "CC50", "setting": "[7]", "value": "> 100 µM (inconclusive)"}
    ]},
    {"compound": "COc1ccc(Oc2c(Cl)cnn(Cc3ccc(C(=O)c4ccccc4)cc3)c2=O)cc1", "values": [
      {"measurement": "IC50", "setting": "[8]", "value": "2.46 µM (active)"},
      {"measurement": "IC50", "setting": "[9]", "value": "5.25 µM (active)"}
    ]},
    {"compound": "N#CC(c1ccc(F)cc1F)c1c(Cl)cnn(Cc2cccc3ccccc23)c1=O", "note": "(stereo not drawn)", "values": [
      {"measurement": "IC50", "setting": "[10]", "value": "0.214 µM (active)"},
      {"measurement": "IC50", "setting": "[11]", "value": "0.214 µM (active)"}
    ]}
  ]
}
